{"source": "paper PMC11089506", "about": "(Journal of Medicinal Chemistry, 2024)", "key": {"Ca2+ Channel N-Type": {"target": "Ca2+ Channel N-Type (Rattus norvegicus, UniProt Q02294)", "sequence (Q02294 whole entry, looked up)": "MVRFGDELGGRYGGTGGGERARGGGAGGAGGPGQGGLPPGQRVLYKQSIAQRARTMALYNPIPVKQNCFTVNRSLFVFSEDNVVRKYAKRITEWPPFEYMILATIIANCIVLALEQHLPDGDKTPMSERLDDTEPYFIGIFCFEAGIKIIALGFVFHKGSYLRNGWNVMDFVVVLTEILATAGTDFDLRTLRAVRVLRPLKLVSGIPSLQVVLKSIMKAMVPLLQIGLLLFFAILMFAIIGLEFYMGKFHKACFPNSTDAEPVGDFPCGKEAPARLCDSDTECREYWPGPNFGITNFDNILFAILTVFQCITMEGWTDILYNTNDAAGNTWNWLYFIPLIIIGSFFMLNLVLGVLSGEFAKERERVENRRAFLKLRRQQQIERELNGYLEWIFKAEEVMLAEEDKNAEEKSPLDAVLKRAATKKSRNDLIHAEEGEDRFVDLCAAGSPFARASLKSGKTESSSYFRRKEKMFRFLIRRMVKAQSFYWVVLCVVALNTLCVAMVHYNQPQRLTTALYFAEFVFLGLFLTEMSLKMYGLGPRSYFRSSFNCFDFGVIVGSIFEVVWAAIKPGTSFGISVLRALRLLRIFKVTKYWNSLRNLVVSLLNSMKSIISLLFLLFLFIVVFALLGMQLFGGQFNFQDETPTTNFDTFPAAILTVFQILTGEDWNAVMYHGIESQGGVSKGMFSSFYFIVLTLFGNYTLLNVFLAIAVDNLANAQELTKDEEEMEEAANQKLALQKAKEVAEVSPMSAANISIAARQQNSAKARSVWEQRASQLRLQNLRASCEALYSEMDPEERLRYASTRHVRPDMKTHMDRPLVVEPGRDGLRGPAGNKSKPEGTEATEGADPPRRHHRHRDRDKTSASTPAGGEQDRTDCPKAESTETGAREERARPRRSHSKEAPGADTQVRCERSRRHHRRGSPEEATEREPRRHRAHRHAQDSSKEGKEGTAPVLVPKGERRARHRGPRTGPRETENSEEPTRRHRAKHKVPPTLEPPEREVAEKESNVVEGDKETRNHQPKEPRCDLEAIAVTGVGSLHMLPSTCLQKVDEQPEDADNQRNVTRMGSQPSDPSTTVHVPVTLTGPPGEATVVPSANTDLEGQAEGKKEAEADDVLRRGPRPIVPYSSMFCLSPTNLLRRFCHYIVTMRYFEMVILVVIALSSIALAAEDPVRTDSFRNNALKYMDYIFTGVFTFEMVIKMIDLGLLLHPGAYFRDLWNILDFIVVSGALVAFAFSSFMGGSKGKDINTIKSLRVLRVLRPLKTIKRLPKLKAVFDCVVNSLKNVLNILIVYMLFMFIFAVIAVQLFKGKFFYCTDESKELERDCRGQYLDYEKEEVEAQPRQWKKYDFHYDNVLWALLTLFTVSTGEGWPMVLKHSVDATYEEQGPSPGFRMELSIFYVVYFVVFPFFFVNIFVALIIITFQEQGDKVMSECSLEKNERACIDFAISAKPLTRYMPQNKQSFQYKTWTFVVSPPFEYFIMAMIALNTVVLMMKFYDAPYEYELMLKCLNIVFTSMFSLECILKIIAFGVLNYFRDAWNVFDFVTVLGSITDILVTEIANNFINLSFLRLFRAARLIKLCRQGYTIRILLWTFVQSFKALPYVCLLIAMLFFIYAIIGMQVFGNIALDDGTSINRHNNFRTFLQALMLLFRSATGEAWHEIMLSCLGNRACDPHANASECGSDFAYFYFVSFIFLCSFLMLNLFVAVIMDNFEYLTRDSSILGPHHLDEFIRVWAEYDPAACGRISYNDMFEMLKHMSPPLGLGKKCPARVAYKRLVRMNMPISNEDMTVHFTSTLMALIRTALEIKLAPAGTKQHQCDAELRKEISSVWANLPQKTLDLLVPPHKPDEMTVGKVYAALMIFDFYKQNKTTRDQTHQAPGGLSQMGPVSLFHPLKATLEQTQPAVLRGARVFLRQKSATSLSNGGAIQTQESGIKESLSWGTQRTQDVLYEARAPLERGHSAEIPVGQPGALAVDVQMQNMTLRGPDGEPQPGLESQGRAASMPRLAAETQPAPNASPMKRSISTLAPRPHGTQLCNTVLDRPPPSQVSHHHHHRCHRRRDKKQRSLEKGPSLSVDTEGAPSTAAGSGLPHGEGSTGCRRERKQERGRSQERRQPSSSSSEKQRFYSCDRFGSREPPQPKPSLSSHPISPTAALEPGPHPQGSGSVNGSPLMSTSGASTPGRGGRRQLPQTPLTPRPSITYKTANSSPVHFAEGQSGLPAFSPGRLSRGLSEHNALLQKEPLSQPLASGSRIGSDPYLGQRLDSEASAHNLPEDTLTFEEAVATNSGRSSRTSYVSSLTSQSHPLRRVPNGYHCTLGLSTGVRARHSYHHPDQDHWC", "test": "biochemical", "format": "binding"}, "M5 (muscarinic receptor)": {"target": "T1, M5 (muscarinic receptor) (Homo sapiens, UniProt P08912)", "T1 construct": "Eurofins", "T1 sequence (P08912 1-532)": "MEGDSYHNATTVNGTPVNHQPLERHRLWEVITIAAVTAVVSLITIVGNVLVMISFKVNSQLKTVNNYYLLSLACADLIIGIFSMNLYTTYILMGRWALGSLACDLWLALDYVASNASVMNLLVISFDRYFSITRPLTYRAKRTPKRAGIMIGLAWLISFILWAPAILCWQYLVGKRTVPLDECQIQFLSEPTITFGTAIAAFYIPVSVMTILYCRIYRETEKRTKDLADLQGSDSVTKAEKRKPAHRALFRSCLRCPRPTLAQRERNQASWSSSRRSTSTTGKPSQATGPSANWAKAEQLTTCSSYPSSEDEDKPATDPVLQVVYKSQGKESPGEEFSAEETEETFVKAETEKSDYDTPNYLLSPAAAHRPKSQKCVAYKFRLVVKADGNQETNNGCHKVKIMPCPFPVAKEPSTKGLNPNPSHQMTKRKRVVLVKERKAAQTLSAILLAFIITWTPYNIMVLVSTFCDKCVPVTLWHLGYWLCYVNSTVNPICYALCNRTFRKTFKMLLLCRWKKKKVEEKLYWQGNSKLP", "test": "radioligand competition binding, [3H]4-DAMP"}, "K+ Channel (KATP)": {"target": "T2, K+ Channel (KATP) (Cricetus cricetus, UniProt Q09427)", "T2 construct": "Eurofins", "test": "radioligand competition binding, [3H]Glyburide", "set-up": "species or system hamster"}, "M4 (muscarinic receptor)": {"target": "T3, M4 (muscarinic receptor) (Homo sapiens, UniProt P08173)", "T3 construct": "Eurofins", "T3 sequence (P08173 1-479)": "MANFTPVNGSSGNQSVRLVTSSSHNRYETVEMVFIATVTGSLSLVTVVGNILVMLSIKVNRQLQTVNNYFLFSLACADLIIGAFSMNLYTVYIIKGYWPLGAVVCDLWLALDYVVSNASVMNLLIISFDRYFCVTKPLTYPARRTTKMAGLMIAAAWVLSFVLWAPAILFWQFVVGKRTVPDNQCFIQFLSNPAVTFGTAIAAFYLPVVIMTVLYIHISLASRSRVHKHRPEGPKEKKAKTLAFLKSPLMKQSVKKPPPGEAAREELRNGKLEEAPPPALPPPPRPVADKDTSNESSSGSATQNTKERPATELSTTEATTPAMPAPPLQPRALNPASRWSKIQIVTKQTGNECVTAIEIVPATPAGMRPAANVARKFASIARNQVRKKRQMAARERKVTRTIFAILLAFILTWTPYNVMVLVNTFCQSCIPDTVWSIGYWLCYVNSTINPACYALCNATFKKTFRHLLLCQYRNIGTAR", "test": "radioligand competition binding, [3H]4-DAMP"}, "Tachykinin receptor NK3": {"target": "T4, Tachykinin receptor NK3 (Homo sapiens, UniProt P29371)", "T4 construct": "Eurofins (contract laboratory)", "T4 sequence (P29371 whole entry)": "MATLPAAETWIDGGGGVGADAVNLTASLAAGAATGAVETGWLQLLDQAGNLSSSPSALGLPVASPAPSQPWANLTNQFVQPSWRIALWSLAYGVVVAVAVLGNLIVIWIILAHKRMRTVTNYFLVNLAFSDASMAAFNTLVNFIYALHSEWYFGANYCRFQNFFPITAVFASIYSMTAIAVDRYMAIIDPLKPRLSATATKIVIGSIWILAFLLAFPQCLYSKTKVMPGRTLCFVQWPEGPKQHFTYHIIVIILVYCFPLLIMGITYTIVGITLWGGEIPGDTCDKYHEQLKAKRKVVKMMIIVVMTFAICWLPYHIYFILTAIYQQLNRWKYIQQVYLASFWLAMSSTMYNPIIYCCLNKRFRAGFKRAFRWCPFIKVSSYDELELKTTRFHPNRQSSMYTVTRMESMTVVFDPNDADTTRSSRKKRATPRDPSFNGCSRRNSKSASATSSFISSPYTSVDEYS", "test": "radioligand competition binding, [125I]MePhe7-Neurokinin B"}, "[1]": {"target": "T5, Leukotriene receptor CysLT1 (Homo sapiens, UniProt Q9Y271)", "T5 construct": "Eurofins", "T5 sequence (Q9Y271 whole entry)": "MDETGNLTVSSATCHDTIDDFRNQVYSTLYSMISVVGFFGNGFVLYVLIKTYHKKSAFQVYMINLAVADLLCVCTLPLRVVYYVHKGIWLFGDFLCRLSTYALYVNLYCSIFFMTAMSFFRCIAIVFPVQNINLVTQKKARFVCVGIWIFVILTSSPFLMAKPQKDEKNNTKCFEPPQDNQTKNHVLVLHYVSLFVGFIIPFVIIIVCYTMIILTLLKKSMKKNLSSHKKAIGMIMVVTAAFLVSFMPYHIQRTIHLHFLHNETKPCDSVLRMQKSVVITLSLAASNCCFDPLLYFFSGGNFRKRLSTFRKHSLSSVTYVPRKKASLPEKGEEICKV", "test": "radioligand competition binding, [125I]LTD4"}, "hERG K+ channel": {"target": "T6, hERG K+ channel (Homo sapiens, UniProt Q12809)", "T6 construct": "Eurofins", "test": "radioligand competition binding, [3H]Astemizole", "conditions": "human, probe [3H]Astemizole; read-out: % inhibition of the specific radioligand binding"}, "K+ Channel (hERG)": {"target": "T7, K+ Channel (hERG) (Homo sapiens, UniProt Q12809)", "T7 construct": "Eurofins", "test": "radioligand competition binding, [3H]Astemizole", "conditions": "estimated from the % inhibition data"}, "Glucocorticoid receptor": {"target": "T8, Glucocorticoid receptor (Homo sapiens, UniProt P04150)", "T8 construct": "Eurofins", "test": "radioligand competition binding, [3H]Dexamethasone"}, "Thyroid hormone receptor": {"tested_on": "Thyroid hormone receptor", "test": "radioligand competition binding, [125I]Triiodothyronine", "set-up": "species or system rat"}, "NET": {"target": "T9, NET (Homo sapiens, UniProt P23975)", "T9 construct": "Eurofins", "T9 sequence (P23975 whole entry)": "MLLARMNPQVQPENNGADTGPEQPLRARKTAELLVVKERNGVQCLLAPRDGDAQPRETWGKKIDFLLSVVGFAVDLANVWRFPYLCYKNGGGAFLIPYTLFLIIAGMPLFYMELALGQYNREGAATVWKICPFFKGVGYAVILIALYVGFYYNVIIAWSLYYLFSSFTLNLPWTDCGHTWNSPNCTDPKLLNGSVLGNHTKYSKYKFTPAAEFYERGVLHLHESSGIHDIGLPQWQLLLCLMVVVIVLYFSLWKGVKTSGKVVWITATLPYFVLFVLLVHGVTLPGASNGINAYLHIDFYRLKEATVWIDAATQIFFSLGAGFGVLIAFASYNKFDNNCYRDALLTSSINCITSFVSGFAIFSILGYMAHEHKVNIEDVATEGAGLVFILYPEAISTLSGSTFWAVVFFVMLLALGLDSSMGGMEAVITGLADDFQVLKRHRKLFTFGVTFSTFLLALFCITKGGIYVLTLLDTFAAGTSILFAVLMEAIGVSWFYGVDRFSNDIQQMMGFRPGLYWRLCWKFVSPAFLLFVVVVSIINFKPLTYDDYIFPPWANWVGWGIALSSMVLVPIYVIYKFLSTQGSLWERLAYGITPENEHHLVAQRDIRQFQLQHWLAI", "test": "radioligand competition binding, [3H]nisoxetine"}, "Phosphodiesterase": {"tested_on": "Phosphodiesterase", "test": "radioligand competition binding, [3H]Rolipram", "set-up": "species or system rat"}, "GABAB(1a,2) receptor": {"target": "T10, GABAB(1a,2) receptor (Homo sapiens, UniProt Q9UBS5)", "T10 construct": "Eurofins", "test": "radioligand competition binding, [3H]CGP-54626"}, "Sigma receptor σ1": {"target": "T11, Sigma receptor σ1 (Homo sapiens, UniProt Q99720)", "T11 construct": "Eurofins (contract laboratory)", "T11 sequence (Q99720 whole entry)": "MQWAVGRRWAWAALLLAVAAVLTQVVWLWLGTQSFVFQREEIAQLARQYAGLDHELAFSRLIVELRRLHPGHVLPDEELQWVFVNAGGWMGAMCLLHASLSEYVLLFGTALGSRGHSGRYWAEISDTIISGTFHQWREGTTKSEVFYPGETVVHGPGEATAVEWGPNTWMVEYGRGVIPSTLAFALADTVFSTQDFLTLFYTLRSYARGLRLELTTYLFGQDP", "test": "radioligand competition binding, [3H]Pentazocine"}, "[2]": {"target": "Ca2+ Channel L-Type, (Benzothiazepine) (Rattus norvegicus, UniProt P22002)", "test": "biochemical", "conditions": "read-out: % inhibition of the specific radioligand binding"}, "human 5-HT2BR": {"target": "T12, human 5-HT2BR (Homo sapiens, UniProt P41595)", "T12 construct": "host or cells: HEK293 (membrane homogenates)", "test": "Calcium No Wash PLUS assay, 5-HT2BR-HEK293 cells (Eurofins)", "format": "cell-based", "conditions": "fluorescence-based Ca2+ imaging assay"}, "[3]": {"target": "T13, H1 (histaminergic receptor) (Homo sapiens, UniProt P35367)", "T13 construct": "Eurofins", "T13 sequence (P35367 whole entry)": "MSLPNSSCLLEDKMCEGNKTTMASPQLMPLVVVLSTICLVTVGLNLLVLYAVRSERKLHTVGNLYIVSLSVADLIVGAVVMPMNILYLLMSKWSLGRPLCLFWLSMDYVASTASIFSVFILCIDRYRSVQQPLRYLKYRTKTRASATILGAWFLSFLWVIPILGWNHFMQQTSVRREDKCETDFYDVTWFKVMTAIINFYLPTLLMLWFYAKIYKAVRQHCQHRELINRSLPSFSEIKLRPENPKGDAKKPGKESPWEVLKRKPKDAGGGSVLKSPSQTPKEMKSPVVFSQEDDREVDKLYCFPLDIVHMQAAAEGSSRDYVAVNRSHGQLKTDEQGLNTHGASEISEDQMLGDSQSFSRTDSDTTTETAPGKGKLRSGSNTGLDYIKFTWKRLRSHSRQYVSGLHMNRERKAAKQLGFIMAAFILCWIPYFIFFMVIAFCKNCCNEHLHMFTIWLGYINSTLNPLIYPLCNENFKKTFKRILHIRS", "test": "radioligand competition binding, [3H]pyrilamine"}, "NMDA receptor (PCP)": {"tested_on": "NMDA receptor (PCP)", "test": "radioligand competition binding, [3H]TCP", "set-up": "species or system rat"}, "Endothelin receptor ETA": {"target": "T14, Endothelin receptor ETA (Homo sapiens, UniProt P25101)", "T14 construct": "Eurofins", "test": "radioligand competition binding, [125I]Endothelin-1"}, "[4]": {"target": "T15, Neuropeptide Y receptor Y1 (Homo sapiens, UniProt P25929)", "T15 construct": "Eurofins", "test": "radioligand competition binding, [125I]Peptide YY"}, "β1 (adrenergic receptor)": {"target": "T16, β1 (adrenergic receptor) (Homo sapiens, UniProt P08588)", "T16 construct": "Eurofins", "T16 sequence (P08588 whole entry)": "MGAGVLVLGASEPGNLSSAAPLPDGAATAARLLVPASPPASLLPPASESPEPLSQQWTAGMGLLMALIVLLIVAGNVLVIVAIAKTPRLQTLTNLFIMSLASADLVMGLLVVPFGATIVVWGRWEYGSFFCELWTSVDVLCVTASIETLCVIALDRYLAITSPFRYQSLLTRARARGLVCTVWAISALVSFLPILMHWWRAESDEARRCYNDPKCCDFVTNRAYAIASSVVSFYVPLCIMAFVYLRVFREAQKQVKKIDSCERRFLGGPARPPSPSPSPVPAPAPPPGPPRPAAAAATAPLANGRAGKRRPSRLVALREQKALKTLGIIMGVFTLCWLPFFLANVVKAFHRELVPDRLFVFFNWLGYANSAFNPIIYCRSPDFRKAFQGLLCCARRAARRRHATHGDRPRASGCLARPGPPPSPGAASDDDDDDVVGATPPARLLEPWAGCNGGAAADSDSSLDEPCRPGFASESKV", "test": "radioligand competition binding, [3H](-)CGP 12177"}, "MDR1 (P-gp)": {"tested_on": "MDR1 (P-gp)", "test": "MDR1-MDCK II permeability assay", "format": "in vitro ADME", "conditions": "dog, MDCK-MDR1, pH 7.4"}, "MDR1": {"tested_on": "MDR1", "test": "MDR1-MDCK II permeability assay", "format": "in vitro ADME", "conditions": "dog, MDCK-MDR1, pH 7.4, Table S6"}, "[5]": {"conditions": "read-out: % inhibition of the specific radioligand binding"}, "[6]": {"conditions": "estimated from the % inhibition data"}}, "note": "Counter-ions that a name gives are not always drawn. Like-named read-outs stand apart in the source and are kept apart here."}
{"smiles": "COc1cc(C(F)(F)F)c(OC)cc1[C@@H]1CCCNC1", "note": "[(S)-11, 3-(2,5-Dimethoxy-4-(trifluoromethyl)phenyl)piperidine Hydrochloride]", "values": [{"measurement": "IC50", "setting": "Ca2+ Channel N-Type", "value": "> 10", "unit": "µM"}, {"measurement": "inhibition at 10 µM", "setting": "Ca2+ Channel N-Type; [5]", "value": -5, "unit": "%"}, {"measurement": "IC50", "setting": "M5 (muscarinic receptor); [6]", "value": "~1", "unit": "µM"}, {"measurement": "inhibition at 0.1 µM", "setting": "M5 (muscarinic receptor); [5]", "value": 9, "unit": "%"}, {"measurement": "inhibition at 1 µM", "setting": "M5 (muscarinic receptor); [5]", "value": 57, "unit": "%"}, {"measurement": "inhibition at 10 µM", "setting": "M5 (muscarinic receptor); [5]", "value": 92, "unit": "%"}, {"measurement": "IC50", "setting": "K+ Channel (KATP); [6]", "value": "> 10", "unit": "µM"}, {"measurement": "inhibition at 10 µM", "setting": "K+ Channel (KATP); [5]", "value": -2, "unit": "%"}, {"measurement": "IC50", "setting": "M4 (muscarinic receptor); [6]", "value": "1 to 10", "unit": "µM"}, {"measurement": "inhibition at 0.1 µM", "setting": "M4 (muscarinic receptor); [5]", "value": 9, "unit": "%"}, {"measurement": "inhibition at 1 µM", "setting": "M4 (muscarinic receptor); [5]", "value": 38, "unit": "%"}, {"measurement": "inhibition at 10 µM", "setting": "M4 (muscarinic receptor); [5]", "value": 80, "unit": "%"}, {"measurement": "IC50", "setting": "Tachykinin receptor NK3; [6]", "value": "> 10", "unit": "µM"}, {"measurement": "inhibition at 10 µM", "setting": "Tachykinin receptor NK3; [5]", "value": 14, "unit": "%"}, {"measurement": "IC50", "setting": "[1]; [6]", "value": "> 10", "unit": "µM"}, {"measurement": "inhibition at 10 µM", "setting": "[1]; [5]", "value": -7, "unit": "%"}, {"measurement": "inhibition at 10 µM", "setting": "hERG K+ channel", "value": 32, "unit": "%"}, {"measurement": "IC50", "setting": "K+ Channel (hERG)", "value": "> 10", "unit": "µM"}, {"measurement": "IC50", "setting": "Glucocorticoid receptor; [6]", "value": "> 10", "unit": "µM"}, {"measurement": "inhibition at 10 µM", "setting": "Glucocorticoid receptor; [5]", "value": 11, "unit": "%"}, {"measurement": "% inhibition of the specific radioligand binding", "setting": "Thyroid hormone receptor; (S)-11 10 μM, n=1", "value": -1, "unit": "%"}, {"measurement": "IC50", "setting": "Thyroid hormone receptor; [6]", "value": "> 10", "unit": "µM"}, {"measurement": "IC50", "setting": "NET; [6]", "value": "> 10", "unit": "µM"}, {"measurement": "inhibition at 10 µM", "setting": "NET; [5]", "value": -4, "unit": "%"}, {"measurement": "% inhibition of the specific radioligand binding", "setting": "Phosphodiesterase; (S)-11 10 μM, n=1", "value": 8, "unit": "%"}, {"measurement": "IC50", "setting": "Phosphodiesterase; [6]", "value": "> 10", "unit": "µM"}, {"measurement": "IC50", "setting": "GABAB(1a,2) receptor; [6]", "value": "> 10", "unit": "µM"}, {"measurement": "inhibition at 10 µM", "setting": "GABAB(1a,2) receptor; [5]", "value": 6, "unit": "%"}, {"measurement": "IC50", "setting": "Sigma receptor σ1; [6]", "value": "1 to 10", "unit": "µM"}, {"measurement": "inhibition at 10 µM", "setting": "Sigma receptor σ1; [5]", "value": 84, "unit": "%"}, {"measurement": "inhibition at 10 µM", "setting": "[2]", "value": 66, "unit": "%"}, {"measurement": "EC50", "setting": "human 5-HT2BR", "value": 0.19, "unit": "µM"}, {"measurement": "IC50", "setting": "[3]; [6]", "value": "1 to 10", "unit": "µM"}, {"measurement": "inhibition at 1 µM", "setting": "[3]; [5]", "value": 19, "unit": "%"}, {"measurement": "inhibition at 10 µM", "setting": "[3]; [5]", "value": 64, "unit": "%"}, {"measurement": "% inhibition of the specific radioligand binding", "setting": "NMDA receptor (PCP); (S)-11 10 μM, n=1", "value": 4, "unit": "%"}, {"measurement": "IC50", "setting": "NMDA receptor (PCP); [6]", "value": "> 10", "unit": "µM"}, {"measurement": "IC50", "setting": "Endothelin receptor ETA; [6]", "value": "> 10", "unit": "µM"}, {"measurement": "inhibition at 10 µM", "setting": "Endothelin receptor ETA; [5]", "value": 12, "unit": "%"}, {"measurement": "IC50", "setting": "[4]; [6]", "value": "> 10", "unit": "µM"}, {"measurement": "inhibition at 10 µM", "setting": "[4]; [5]", "value": -4, "unit": "%"}, {"measurement": "IC50", "setting": "β1 (adrenergic receptor); [6]", "value": "> 10", "unit": "µM"}, {"measurement": "inhibition at 10 µM", "setting": "β1 (adrenergic receptor); [5]", "value": 38, "unit": "%"}, {"measurement": "Papp A→B at […]", "setting": "MDR1 (P-gp)", "value": 18.4, "unit": "×10⁻⁶ cm/s"}, {"measurement": "Papp B→A at […]", "setting": "MDR1 (P-gp)", "value": 17.3, "unit": "×10⁻⁶ cm/s"}, {"measurement": "Papp A→B at […], 2 µM", "setting": "MDR1 (P-gp); Figure 6", "value": 18.6, "unit": "×10⁻⁶ cm/s"}, {"measurement": "Papp B→A at […], 2 µM", "setting": "MDR1 (P-gp); Figure 6", "value": 17.3, "unit": "×10⁻⁶ cm/s"}, {"measurement": "recovery at […]", "setting": "MDR1; read-out: Mean Recovery A to B", "value": 70, "unit": "%"}, {"measurement": "recovery at […]", "setting": "MDR1; read-out: Mean Recovery B to A", "value": 92, "unit": "%"}]}
